Test results reported in ChEMBL document CHEMBL1201862, “PubChem BioAssay data set” (2004).
Calls of active or inactive are those of the source.

Legend:
[1] = molecular target: Peroxisome proliferator-activated receptor gamma/Nuclear receptor coactivator 1 (Homo sapiens, UniProt P37231); test: (§1) TR-FRET dose response biochemical High Throughput Screening assay for agonists of the steroid receptor coactivator 1 (SRC-1) recruitment by the peroxisome proliferator-activated receptor gamma (PPAR gamma): non-selective agonists. [Related pubchem assays (depositor defined):AID1300, AID1808, AID504735, AID631]; format: protein assay
Peroxisome proliferator-activated receptor gamma/Nuclear receptor coactivator 1, sequence (P37231 whole entry): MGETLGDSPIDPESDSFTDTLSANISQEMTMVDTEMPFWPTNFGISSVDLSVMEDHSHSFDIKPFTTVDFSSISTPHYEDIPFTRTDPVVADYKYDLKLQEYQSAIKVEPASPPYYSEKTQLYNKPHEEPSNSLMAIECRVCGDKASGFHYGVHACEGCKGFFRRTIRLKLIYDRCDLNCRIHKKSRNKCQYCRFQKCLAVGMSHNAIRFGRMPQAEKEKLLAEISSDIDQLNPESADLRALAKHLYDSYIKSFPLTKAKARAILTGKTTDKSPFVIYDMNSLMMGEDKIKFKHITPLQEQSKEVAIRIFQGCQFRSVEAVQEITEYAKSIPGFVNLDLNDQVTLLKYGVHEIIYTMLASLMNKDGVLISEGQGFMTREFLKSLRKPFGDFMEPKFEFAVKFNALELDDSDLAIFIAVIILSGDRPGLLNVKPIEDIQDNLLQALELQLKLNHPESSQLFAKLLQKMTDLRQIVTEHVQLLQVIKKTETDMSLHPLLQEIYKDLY
Peroxisome proliferator-activated receptor gamma/Nuclear receptor coactivator 1, sequence (Q15788 whole entry, further chain): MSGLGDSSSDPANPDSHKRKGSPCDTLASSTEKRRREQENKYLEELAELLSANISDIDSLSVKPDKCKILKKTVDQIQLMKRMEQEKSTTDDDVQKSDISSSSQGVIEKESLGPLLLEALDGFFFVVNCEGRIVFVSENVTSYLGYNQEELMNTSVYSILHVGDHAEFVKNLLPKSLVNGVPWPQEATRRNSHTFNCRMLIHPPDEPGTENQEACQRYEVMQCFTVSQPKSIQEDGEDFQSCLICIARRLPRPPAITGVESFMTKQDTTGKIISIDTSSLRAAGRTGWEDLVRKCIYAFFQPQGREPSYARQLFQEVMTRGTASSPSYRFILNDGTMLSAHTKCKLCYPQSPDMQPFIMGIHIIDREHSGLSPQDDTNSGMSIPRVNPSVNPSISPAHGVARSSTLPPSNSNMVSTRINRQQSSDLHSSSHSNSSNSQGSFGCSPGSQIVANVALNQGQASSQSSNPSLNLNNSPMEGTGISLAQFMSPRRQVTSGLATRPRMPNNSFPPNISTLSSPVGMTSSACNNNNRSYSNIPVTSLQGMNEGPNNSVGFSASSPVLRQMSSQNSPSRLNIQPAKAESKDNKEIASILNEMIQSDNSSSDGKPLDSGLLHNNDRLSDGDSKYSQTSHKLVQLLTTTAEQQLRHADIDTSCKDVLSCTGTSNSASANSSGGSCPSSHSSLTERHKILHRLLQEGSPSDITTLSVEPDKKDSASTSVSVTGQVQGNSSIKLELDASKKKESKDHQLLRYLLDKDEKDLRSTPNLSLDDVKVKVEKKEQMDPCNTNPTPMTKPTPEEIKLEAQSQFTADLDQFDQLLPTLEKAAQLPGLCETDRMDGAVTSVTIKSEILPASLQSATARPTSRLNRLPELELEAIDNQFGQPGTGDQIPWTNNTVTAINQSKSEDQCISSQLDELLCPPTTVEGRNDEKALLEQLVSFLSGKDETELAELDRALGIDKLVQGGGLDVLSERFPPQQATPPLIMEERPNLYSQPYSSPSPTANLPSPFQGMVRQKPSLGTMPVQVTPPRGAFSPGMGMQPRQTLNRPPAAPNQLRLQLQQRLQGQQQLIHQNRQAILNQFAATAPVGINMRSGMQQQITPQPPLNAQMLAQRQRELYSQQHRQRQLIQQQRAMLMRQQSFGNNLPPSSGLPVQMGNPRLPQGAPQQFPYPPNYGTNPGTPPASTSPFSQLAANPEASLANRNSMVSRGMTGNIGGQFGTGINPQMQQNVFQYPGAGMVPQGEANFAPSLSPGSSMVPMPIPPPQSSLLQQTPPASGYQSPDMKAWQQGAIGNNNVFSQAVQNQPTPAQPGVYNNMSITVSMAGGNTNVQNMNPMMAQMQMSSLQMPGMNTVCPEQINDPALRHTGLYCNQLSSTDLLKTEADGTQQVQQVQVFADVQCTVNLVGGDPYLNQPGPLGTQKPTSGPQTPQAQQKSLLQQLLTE

[2] = molecular target: Peroxisome proliferator-activated receptor gamma/Nuclear receptor coactivator 3 (Homo sapiens, UniProt P37231); test: as §1, with “3 (SRC-3)” for “1 (SRC-1)”, “assays: 1301 (Confirmation screen.), 1048 (Primary screen.)]” for “assays (depositor defined):AID1300, AID1808, AID504735, AID631]”; format: functional
Peroxisome proliferator-activated receptor gamma/Nuclear receptor coactivator 3, sequence (P37231 whole entry): as the sequence (P37231 whole entry) above
Peroxisome proliferator-activated receptor gamma/Nuclear receptor coactivator 3, sequence (Q9Y6Q9 whole entry, further chain): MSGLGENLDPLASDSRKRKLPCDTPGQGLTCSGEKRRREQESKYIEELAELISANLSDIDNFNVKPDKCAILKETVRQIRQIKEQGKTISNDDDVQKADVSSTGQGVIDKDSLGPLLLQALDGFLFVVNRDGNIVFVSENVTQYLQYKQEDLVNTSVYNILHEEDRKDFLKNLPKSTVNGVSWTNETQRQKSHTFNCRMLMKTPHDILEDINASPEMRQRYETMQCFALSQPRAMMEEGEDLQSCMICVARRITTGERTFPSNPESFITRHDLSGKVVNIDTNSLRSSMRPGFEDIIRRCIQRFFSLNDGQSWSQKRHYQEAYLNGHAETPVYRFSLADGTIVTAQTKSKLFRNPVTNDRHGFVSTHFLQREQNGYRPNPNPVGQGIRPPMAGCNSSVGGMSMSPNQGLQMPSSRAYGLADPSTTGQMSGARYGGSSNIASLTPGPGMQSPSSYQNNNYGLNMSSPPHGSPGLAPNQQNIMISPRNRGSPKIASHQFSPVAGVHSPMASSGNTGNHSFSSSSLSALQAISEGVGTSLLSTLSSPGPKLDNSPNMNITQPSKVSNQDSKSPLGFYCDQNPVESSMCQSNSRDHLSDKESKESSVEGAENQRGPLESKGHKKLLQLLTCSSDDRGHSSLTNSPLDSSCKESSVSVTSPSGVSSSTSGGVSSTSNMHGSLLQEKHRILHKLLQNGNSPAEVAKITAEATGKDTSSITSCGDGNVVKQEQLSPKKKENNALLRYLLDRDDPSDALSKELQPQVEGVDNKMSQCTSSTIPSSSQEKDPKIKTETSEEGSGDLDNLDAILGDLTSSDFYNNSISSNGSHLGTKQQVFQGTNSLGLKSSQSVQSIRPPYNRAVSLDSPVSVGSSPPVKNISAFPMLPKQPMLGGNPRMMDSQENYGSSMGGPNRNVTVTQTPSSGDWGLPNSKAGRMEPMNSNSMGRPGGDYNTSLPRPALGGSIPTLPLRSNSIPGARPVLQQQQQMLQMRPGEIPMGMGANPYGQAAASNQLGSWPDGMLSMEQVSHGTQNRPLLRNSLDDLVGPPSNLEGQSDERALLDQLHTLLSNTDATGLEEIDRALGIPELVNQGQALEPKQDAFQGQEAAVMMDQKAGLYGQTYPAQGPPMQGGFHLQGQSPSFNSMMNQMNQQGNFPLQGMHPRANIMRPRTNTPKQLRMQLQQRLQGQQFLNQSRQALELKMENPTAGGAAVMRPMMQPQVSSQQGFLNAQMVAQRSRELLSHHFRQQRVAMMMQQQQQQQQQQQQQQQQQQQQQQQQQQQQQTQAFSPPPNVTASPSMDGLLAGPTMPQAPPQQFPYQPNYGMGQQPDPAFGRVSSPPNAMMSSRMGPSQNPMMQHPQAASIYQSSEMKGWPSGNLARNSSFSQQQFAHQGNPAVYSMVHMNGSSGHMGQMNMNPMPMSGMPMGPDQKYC

[3] = molecular target: Peroxisome proliferator-activated receptor gamma/Nuclear receptor coactivator 2 (Homo sapiens, UniProt P37231); test: TR-FRET dose response biochemical High Throughput Screening assay for agonists of the steroid receptor coactivator 2 (SRC-2) recruitment by the peroxisome proliferator-activated receptor gamma (PPAR gamma): non-selective agonists. [Related pubchem assays: 1297, 1032 ]; format: functional
[4] = molecular target: Protein-tyrosine kinase 2-beta (Homo sapiens, UniProt Q14289);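 note: potency of inhibitors of PYK2 kinase phosphorylation of poly-GT substrate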
[5] = molecular target: Induced myeloid leukemia cell differentiation protein Mcl-1 (Homo sapiens, UniProt Q07820); format: functional
Induced myeloid leukemia cell differentiation protein Mcl-1, sequence (Q07820 whole entry, the tested form may be a part): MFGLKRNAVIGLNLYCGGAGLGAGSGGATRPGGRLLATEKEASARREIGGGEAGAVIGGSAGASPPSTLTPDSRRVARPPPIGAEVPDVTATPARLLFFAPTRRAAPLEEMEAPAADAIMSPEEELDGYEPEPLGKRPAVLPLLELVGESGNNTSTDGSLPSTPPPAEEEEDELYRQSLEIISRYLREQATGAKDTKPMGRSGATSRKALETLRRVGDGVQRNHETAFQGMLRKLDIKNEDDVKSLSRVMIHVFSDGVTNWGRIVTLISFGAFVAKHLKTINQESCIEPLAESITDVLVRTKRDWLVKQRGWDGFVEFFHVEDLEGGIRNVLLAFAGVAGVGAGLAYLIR

CHO = CHO cell viability loss, potency – luminescence, cytotoxicity control for TLR9-MyD88 binding inhibitor project, dose response (AID 588339); format: functional, cell-based, hamster; details: Cricetulus griseus;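 note: CHO cells stably coexpressing TLR9 and MyD88 fusions from primary screen; compound exposure lasted 48 hours before viability readout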
Escherichia coli = test: microbe, parasite or virus in culture
[6] = molecular target: T1, Heat shock factor protein 1 (Mus musculus, UniProt P38532); test: decrease of HSF1-responsive luciferase luminescence – cell-based, NIH3T3, dose retest, confirmation (AID 2382); format: functional;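 note: NIH3T3 fibroblasts with HSF1-driven luciferase reporter stressed by proteasome inhibitor MG132; luminescence from HSF1-driven luciferase expression after 8 hours of MG132 stress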
T1 sequence (P38532 whole entry): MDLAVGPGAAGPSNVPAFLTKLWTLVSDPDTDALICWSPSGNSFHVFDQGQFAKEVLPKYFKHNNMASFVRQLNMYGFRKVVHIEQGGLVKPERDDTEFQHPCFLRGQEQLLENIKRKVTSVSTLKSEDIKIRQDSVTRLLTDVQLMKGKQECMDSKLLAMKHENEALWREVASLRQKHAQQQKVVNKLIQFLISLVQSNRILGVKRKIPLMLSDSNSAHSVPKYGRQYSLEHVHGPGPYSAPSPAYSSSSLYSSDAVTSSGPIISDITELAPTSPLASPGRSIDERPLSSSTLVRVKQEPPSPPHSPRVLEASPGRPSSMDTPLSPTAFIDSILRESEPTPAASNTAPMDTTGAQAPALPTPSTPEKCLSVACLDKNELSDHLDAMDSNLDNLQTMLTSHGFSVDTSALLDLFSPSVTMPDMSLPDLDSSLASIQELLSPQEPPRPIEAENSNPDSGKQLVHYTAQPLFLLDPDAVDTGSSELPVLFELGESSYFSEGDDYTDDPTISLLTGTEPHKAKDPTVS

[7] = molecular target: Luciferin 4-monooxygenase (Photinus pyralis, UniProt P08659); test: Counter Screen for Luciferase-based Assay Positives. [Related pubchem assays: 620, 618, 411 ]
Luciferin 4-monooxygenase, sequence (P08659 whole entry): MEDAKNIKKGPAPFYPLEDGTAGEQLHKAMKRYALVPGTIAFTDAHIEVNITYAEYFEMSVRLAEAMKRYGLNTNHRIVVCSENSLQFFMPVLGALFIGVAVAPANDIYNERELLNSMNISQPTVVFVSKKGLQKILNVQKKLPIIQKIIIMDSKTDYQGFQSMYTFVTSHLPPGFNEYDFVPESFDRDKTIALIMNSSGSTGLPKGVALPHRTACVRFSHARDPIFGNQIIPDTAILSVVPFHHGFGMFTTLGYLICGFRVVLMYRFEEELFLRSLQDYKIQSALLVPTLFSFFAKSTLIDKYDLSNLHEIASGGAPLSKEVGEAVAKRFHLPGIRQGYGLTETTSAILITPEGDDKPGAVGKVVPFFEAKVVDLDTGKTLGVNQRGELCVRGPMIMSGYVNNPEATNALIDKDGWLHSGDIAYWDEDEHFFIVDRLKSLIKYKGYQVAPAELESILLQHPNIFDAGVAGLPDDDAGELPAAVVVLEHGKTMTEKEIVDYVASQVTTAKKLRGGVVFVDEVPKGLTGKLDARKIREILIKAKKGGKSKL

HT-1080 = test: HT1080 cell viability loss – fluorescence readout (AID 620); format: functional, cell-based; details: Homo sapiens
Nonstructural protein 1 = Nonstructural protein 1 (Influenza A virus, UniProt Q194T2); format: functional, Influenza A virus (A/California/07/2009(H1N1))
Nonstructural protein 1, sequence (Q194T2 whole entry): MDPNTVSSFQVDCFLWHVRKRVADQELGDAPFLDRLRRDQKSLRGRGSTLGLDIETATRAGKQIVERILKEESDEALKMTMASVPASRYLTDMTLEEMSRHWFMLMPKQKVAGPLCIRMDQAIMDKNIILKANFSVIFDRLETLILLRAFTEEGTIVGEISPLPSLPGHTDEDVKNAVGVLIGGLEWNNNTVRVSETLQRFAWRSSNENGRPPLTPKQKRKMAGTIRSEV

HEK293 = test: cells; format: functional, cell-based; details: Homo sapiens
[8] = molecular target: T2, Nuclear receptor subfamily 0 group B member 1 (Homo sapiens, UniProt P51843); test: Luminescence-based cell-based high throughput dose response assay for inhibitors of the orphan nuclear receptor subfamily 0, group B, member 1 (DAX1; NR0B1). [Related pubchem assays (depositor defined):AID504766, AID504790]; format: functional
T2 sequence (P51843 whole entry): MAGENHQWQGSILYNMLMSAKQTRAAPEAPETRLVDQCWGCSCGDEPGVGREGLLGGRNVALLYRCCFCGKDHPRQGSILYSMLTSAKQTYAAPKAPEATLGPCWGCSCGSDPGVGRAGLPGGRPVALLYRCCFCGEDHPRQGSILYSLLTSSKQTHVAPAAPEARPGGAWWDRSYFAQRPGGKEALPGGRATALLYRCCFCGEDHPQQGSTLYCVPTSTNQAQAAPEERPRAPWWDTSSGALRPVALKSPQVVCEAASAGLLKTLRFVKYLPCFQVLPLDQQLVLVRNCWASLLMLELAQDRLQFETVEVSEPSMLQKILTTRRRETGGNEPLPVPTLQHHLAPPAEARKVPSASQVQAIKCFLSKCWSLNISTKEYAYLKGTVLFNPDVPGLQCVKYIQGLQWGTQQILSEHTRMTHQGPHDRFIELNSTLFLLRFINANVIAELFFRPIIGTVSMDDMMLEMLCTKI

[9] = molecular target: T3, Corticotropin-releasing factor receptor 2/Corticotropin-releasing factor-binding protein (Homo sapiens, UniProt P24387+Q13324); test: Dose Response confirmation of uHTS hits for small molecule antagonists of the CRF-binding protein and CRF-R2 receptor complex.; format: functional; details: read-out: IC50_Mean
T3 sequence (Q13324 whole entry): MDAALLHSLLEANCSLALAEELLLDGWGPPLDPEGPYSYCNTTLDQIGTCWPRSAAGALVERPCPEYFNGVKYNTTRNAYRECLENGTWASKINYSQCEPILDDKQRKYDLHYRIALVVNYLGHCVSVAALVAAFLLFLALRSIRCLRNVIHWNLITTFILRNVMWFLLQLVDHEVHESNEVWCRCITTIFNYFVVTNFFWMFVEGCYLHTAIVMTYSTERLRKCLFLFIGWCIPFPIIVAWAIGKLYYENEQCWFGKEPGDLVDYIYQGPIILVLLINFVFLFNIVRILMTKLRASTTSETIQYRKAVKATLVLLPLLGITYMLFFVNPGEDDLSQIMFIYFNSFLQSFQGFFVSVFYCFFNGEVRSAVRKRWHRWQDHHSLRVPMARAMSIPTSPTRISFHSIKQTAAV
T3 sequence (P24387 whole entry): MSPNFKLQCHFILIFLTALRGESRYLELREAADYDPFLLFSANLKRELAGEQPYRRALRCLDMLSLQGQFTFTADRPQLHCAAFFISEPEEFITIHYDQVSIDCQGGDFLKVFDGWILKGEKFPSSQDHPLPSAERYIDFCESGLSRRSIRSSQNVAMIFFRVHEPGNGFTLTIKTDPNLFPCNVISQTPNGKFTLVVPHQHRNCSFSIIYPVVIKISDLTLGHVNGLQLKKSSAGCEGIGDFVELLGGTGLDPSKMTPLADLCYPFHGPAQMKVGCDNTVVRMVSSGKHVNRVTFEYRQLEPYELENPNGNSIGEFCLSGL

[10] = molecular target: T3, Corticotropin-releasing factor receptor 2/Corticotropin-releasing factor-binding protein; test: activators of CRF receptor 2 with binding protein – uHTS hits, confirmation (AID 602473); format: functional; details: read-out: EC50_Mean
[11] = blockers of CRF-binding protein–CRF-R2 complex – cell-based, uHTS hits, 384-well, dose response (AID 651639); format: functional, Homo sapiens; details: read-out: IC50_Mean

Row | Structure (SMILES) | EC50 [1] | EC50 [2] | EC50 [3] | IC50 (HEK293) | IC50 [8] | other results
1 | N#Cc1cc(C(=O)c2cc(Br)ccc2O)cn(Cc2ccccc2)c1=O | > 79.4 µM (inactive) | > 79.4 µM (not active) | > 79.4 µM (not active) | – | – | –
2 | COc1ccc(C(=O)c2sc3nc(-c4ccccc4)ccc3c2N)cc1OC | – | – | – | – | – | IC50 [4]: 12 µM (not active); IC50 [5]: 1.27 µM (not active); IC50 (CHO): 27.3 µM (inactive)
3 | COc1ccc(C2CC(c3ccc(Br)cc3)=NN2C(S)=Nc2ccccc2)cc1 (configuration not stated) | 31.8 µM (inactive) | > 79.4 µM (not active) | 30.2 µM (not active) | – | – | –
4 | COC(C(=O)Nc1ccnn1C1CCN(Cc2ccc(C)o2)CC1)c1ccccc1 (configuration not stated) | – | – | – | – | – | AC50 (Escherichia coli): 74.5 µM (active)
5 | Cn1c(S)nnc1-c1sc2cc(C(F)(F)F)cnc2c1-c1cccnc1 | 4.86 µM (active) | 20.2 µM (not active) | 7.93 µM (active) | – | – | EC50 [6]: > 195 µM (not active)
6 | Clc1ccc(-c2nnc(N3CCCC3)nn2)cc1 | – | – | – | > 67.5 µM (inactive) | > 67.5 µM (inactive) | EC50 [7]: 1.39 µM (active); EC50 (HT-1080): > 50 µM (not active); IC50 (Nonstructural protein 1): > 100 µM (active)
7 | O=C(NC(Cc1ccccc1)c1nc2ccccc2[nH]1)c1ccc(Cl)c([N+](=O)[O-])c1 (configuration not stated) | – | – | – | – | – | IC50 [9]: 11.6 µM (active); EC50 [10]: > 53 µM (inactive); IC50 [11]: 4.96 µM (active); AC50 (Escherichia coli): 25 µM (active)
8 | Nc1c(O)nc(O)nc1C(=O)OCC(=O)NCc1ccccc1 | – | – | – | > 67.5 µM (inactive) | > 67.5 µM (inactive) | –
9 | O=C1c2ccccc2C(=O)N1CCc1c[nH]c2ccccc12 | – | – | – | > 67.5 µM (inactive) | > 67.5 µM (inactive) | –
